Assay [1] deals with Histamine H3-receptor (Rattus norvegicus, UniProt Q9QYN8). Put plainly: [3H]N-alpha-methyl-histamine competitive histamine H3-receptor binding assay (rat brain cortex membranes). To be noted: whole rat brain cortex membranes, [3H]-N-α-methyl-histamine 1 nM. On the procedure: The histamine receptor binding assay was conducted using standard laboratory procedures as described below. A crude membrane fraction was prepared from whole rat brain cortex using a polytron to homogenize the tissue followed by differential centrifugation in a HEPES-based buffer containing protease inhibitors. Membranes where frozen at −80° C. until needed. Frozen membranes were thawed and resuspended in ice-cold assay buffer consisting of 50 mM TRIS containing 5 mM EDTA (pH=7.4). 50 micrograms (μg) of membrane protein was added to each well of a 96-well assay plate along with test compound and [^3H]-N-α-methyl-histamine (1 nanomolar (nM) final assay concentration). Imetit was used as an assay positive control at varying concentrations. The plate was incubated for 30 min at room temperature. The assay was terminated by rapid filtration through a 96-well glass fiber filtration plate (GF/C) using a cell harvester (Perkin-Elmer). Captured membranes were washed three times with cold assay buffer and plates were dried at 50° C. 35 microliters (μL) of scintillation cocktail was added to each well and membrane-bound radioactivity was recorded using a TopCount 96-well plate scintillation counter (Perkin-Elmer).
Sequence of Histamine H3-receptor (Q9QYN8 1-397 isoform Q9QYN8-3): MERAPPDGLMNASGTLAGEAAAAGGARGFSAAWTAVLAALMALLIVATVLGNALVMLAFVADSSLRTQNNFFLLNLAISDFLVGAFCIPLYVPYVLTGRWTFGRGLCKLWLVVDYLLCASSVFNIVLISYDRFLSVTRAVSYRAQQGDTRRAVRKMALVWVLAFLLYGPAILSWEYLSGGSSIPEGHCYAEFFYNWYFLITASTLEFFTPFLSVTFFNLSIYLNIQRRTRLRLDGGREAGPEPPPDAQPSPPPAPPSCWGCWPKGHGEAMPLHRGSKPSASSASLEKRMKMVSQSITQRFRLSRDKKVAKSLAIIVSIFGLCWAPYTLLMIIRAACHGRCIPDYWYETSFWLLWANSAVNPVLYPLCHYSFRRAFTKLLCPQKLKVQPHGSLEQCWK

The test system of assay [2] is male Sprague Dawley rats. Put plainly: Blockade of RAMH-induced drinking assay. The format is in vivo. As to conditions: rat, 0.3 mg/kg PO, RAMH 3 mg/kg SC, drinking 20 min. On the procedure: When administered to rodents, H3 agonists such as R-α-methyl-histamine (RAMH) induce a drinking response that is sensitive to reversal with an H3 antagonist. Blockade of RAMH-induced drinking can therefore be utilized as an in vivo assay for functional H3 antagonist activity. In this assay, male Sprague Dawley rats (250-350 g) were housed three per cage and maintained under a reverse 12 h light cycle (lights off at 1130 h). At 1030 h on the day of test, rats were individually housed in new cages and food was removed. 120 min later, rats were administered test article (vehicle or H3 antagonist, 0.3 mg/kg PO). 30 min later, water was removed, and RAMH (vehicle or RAMH 3 mg/kg salt SC) was administered. 10 min after administration of RAMH, weighed water bottles were placed in the cages, and drinking was allowed for 20 min. Water consumption was determined for each animal by weighing each bottle to the nearest 0.1 g. Data is expressed as percentage reduction in water intake according to the following formula:
[1−[(ANTAGONIST/RAMH)−(VEHICLE/RAMH)/(VEHICLE/RAMH)−(VEHICLENEHICLE)]]*100

In assay [3] the target is T1, human histamine H3-receptor (Homo sapiens, UniProt Q9Y5N1).
T1 construct: purchased MDS Pharma Services (Taiwan) 239810
T1 sequence (Q9Y5N1 whole entry): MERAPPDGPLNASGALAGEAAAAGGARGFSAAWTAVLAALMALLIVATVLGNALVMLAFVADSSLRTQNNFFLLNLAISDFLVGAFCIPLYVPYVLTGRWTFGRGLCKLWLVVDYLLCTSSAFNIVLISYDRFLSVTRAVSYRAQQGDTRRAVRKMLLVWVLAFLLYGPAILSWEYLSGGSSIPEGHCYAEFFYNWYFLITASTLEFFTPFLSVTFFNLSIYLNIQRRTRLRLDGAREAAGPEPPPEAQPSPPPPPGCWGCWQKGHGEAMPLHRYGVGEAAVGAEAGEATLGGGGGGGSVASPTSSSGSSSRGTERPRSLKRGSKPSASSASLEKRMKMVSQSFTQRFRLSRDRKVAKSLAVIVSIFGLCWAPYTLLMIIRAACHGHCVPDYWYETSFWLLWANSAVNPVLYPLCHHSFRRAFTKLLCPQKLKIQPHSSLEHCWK
Put plainly: Human histamine H3-receptor binding assay, MDS Pharma Services (Taiwan), Catalogue No. 239810. How it is done: Compounds of the invention were tested for their ability to bind to the human histamine H3-receptor using the MDS Pharma Services (Taiwan) assay, Catalogue No. 239810.

Assay [4] has as its system Male Sprague-Dawley rats. Put plainly: Rat polysomnography (EEG/EMG wakefulness). It counts as in vivo. As to conditions: over 1 h after oral administration at 0.6 mg/kg. How it is done:
Animals: Male Sprague-Dawley rats (225-350 g) (Harlan, San Diego, Calif.) were singly housed and maintained in a humidity—(30-70%) and temperature—(20-22° C.) controlled facility on a 12 h:12 h light/dark cycle (lights on at 6:30 A.M.) with free access to food (Harlan-Teklad Western Res., Orange, Calif., Rodent Diet 8604) and water. Rats were allowed at least three days of habituation to the animal facility before surgery.
Rats were anaesthetized with a ketamine/xylazine mixture, and surgically prepared for
EEG and EMG recording. After 2-3 weeks of post-surgical recovery, rats were habituated to polypropylene test cages for at least three days. On test days, the rats were placed in the test chambers and habituated overnight. At 10 am the next day, the rats were administered the test compound, connected to the recording apparatus, and placed back into the test chambers for 3 h.
EEG and EMG data were digitized and stored in 10 s epochs over the three hour test period. […] […] Percent increase in wakefulness was then derived for each rat.

Broadly, the Ki is a measure of affinity in units of concentration, obtained from inhibition or displacement. Read a low Ki as a stronger hold on the target. Consider `C[C@@H]1CCCN1CCc1ccc(-c2ccc(S(C)(=O)=O)cc2)cc1` [Cmpd 1, (R)-1-[2-(4′-Methanesulfonyl-biphenyl-4-yl)-ethyl]-2-methyl-pyrrolidine], for which the affinity in assay [1], expressed as Ki, was 2.4 nM. For `CCS(=O)(=O)c1ccc(-c2ccc(CCN3CCC[C@H]3C)cc2)cc1` [Cmpd 2, (R)-1-[2-(4′-Ethanesulfonyl-biphenyl-4-yl)-ethyl]-2-methyl-pyrrolidine], the “% inhibition of RAMH-induced drinking” value in assay [2] was 82.6 ± 12.9%. As to `COCCS(=O)(=O)c1ccc(-c2ccc(CCN3CCC[C@H]3C)cc2)cc1` [Cmpd 3, (R)-1-{2-[4′-(2-Methoxy-ethanesulfonyl)-biphenyl-4-yl]-ethyl}-2-methyl-pyrrolidine], in assay [1], the affinity, expressed as Ki, was 3 nM. On to `CCCS(=O)(=O)c1ccc(-c2ccc(CCN3CCC[C@H]3C)cc2)cc1` [Cmpd 5, (R)-2-Methyl-1-{2-[4′-(propane-1-sulfonyl)-biphenyl-4-yl]-ethyl}-pyrrolidine], for which affinity in assay [3] was put at a Ki of 3.7 nM. Take `C[C@@H]1CCCN1CCc1ccc(-c2ccc(S(=O)(=O)Cc3ccccc3)cc2)cc1` [Cmpd 6, (R)-2-Methyl-1-[2-(4′-phenylmethanesulfonyl-biphenyl-4-yl)-ethyl]-pyrrolidine]: the Ki in assay [1] stood at 1.1 nM. `C[C@@H]1CCCN1CCc1ccc(-c2ccc3c(c2)C(=O)CCS3(=O)=O)cc1` [Cmpd 7, 6-{4-[2-((R)-2-Methyl-pyrrolidin-1-yl)-ethyl]-phenyl}-1,1-dioxo-1λ^6-thiochroman-4-one] yielded a Ki in assay [3] of 2.9 nM. In assay [2], the “% inhibition of RAMH-induced drinking” value amounted to 92.5 ± 15.8%. `COCCCS(=O)(=O)c1ccc(-c2ccc(CCN3CCC[C@H]3C)cc2)cc1` [Cmpd 8, (R)-1-{2-[4′-(3-Methoxy-propane-1-sulfonyl)-biphenyl-4-yl]-ethyl}-2-methyl-pyrrolidine] came in with a Ki in assay [1] of 1.5 nM. For `C[C@@H]1CCCN1CCc1ccc(-c2ccc(S(=O)(=O)CCO)cc2)cc1` [Cmpd 10, 2-{4′-[2-((R)-2-Methyl-pyrrolidin-1-yl)-ethyl]-biphenyl-4-sulfonyl}-ethanol], the “% Increase in wakefulness +/− s.e.” value in assay [4] was determined as 46 ± 15%. Consider `C[C@@H]1CCCN1CCc1ccc(-c2ccc(S(=O)(=O)CCCO)cc2)cc1` [Cmpd 15, 3-{4′-(2-((R)-2-Methyl-pyrrolidin-1-yl)-ethyl]-biphenyl-4-sulfonyl}-propan-1-ol], for which the “% inhibition of RAMH-induced drinking” value in assay [2] came to 58.8 ± 16.1%. In assay [1], `C[C@@H]1CCCN1CCc1ccc(-c2cccc(S(=O)(=O)CCO)c2)cc1` [Cmpd 17, 2-{4′-[2-((R)-2-Methyl-pyrrolidin-1-yl)-ethyl]-biphenyl-3-sulfonyl}-ethanol] yielded a Ki of 16 nM.

The record behind these values is patent US20100240653A1, “BIPHENYL SULFONYL AND PHENYL-HETEROARYL SULFONYL MODULATORS OF THE HISTAMINE H3-RECEPTOR USEFUL FOR THE TREATMENT OF DISORDERS RELATED THERETO” (priority 2006, published 2010).
